System: RA patients
Assay: Atherogenic index, Study 1 (RA patients, add-on to MTX)
Format: in vivo, human
Protocol: As used herein, the term ‘atherogenic index’ refers to
Double-blind, placebo-controlled add on study in subjects with moderately to severely active RA who have an inadequate response to methotrexate (MTX) (oral or parenteral).
Compound 1 (dosed as a [Compound 1:HCl:3H2O]) is dosed for twelve weeks once daily (q.d.) (50 mg, 100 mg or 200 mg) or twice daily (b.i.d.) (25 mg, 50 mg or 100 mg); or placebo.
At Week 12, the subjects on placebo who have not achieved 20% improvement in swollen joint count (SJC66) and tender joint count (TJC68) are re-randomized automatically to receive Compound 1 (dosed as a [Compound 1:HCl:3H2O]) either at 100 mg q.d. or 50 mg b.i.d. doses in a blinded fashion; subjects on 50 mg q.d. who have not achieved 20% improvement in SJC66 and TJC68 will be assigned to 100 mg q.d. and subjects on 25 mg b.i.d. that have not achieved a 20% improvement in SJC66 and TJC68 will be assigned to 50 mg b.i.d. Subjects who switch treatment at week 12 are handled as if they discontinued at week 12 for the purpose of statistical analysis, whereas subjects in the other groups will maintain their randomized treatment until Week 24.
The atherogenic index has been identified to be a good predictor of cardiovascular disorders risks and is calculated as follows: […]

[1] = 25 mg b.i.d continued over 24 weeks, week 1
[2] = 25 mg b.i.d continued over 24 weeks, week 2
[3] = 25 mg b.i.d continued over 24 weeks, week 4
[4] = 25 mg b.i.d continued over 24 weeks, week 8
[5] = 25 mg b.i.d continued over 24 weeks, week 12
[6] = 25 mg b.i.d continued over 24 weeks, week 16
[7] = 25 mg b.i.d continued over 24 weeks, week 20
[8] = 25 mg b.i.d continued over 24 weeks, week 24
[9] = 50 mg b.i.d. continued over 24 weeks, week 1
[10] = 50 mg b.i.d. continued over 24 weeks, week 2
[11] = 50 mg b.i.d. continued over 24 weeks, week 4
[12] = 50 mg b.i.d. continued over 24 weeks, week 8
[13] = 50 mg b.i.d. continued over 24 weeks, week 12
[14] = 50 mg b.i.d. continued over 24 weeks, week 16
[15] = 50 mg b.i.d. continued over 24 weeks, week 20
[16] = 50 mg b.i.d. continued over 24 weeks, week 24
[17] = 50 mg q.d. continued over 24 weeks, week 1
[18] = 50 mg q.d. continued over 24 weeks, week 2
[19] = 50 mg q.d. continued over 24 weeks, week 4
[20] = 50 mg q.d. continued over 24 weeks, week 8
[21] = 50 mg q.d. continued over 24 weeks, week 12
[22] = 50 mg q.d. continued over 24 weeks, week 16
[23] = 50 mg q.d. continued over 24 weeks, week 20
[24] = 50 mg q.d. continued over 24 weeks, week 24

## O=C(Nc1nc2cccc(-c3ccc(CN4CCS(=O)(=O)CC4)cc3)n2n1)C1CC1 [Compound 1, cyclopropanecarboxylic acid {5-[4-(1,1-dioxo-thiomorpholin-4-ylmethyl)-phenyl]-[1,2,4]triazolo[1,5-a]pyridin-2yl}-amide]
[1]
  Atherogenic index Mean CFB - 24 weeks results: 0.08 mmol/L
  Atherogenic index Mean percentage CFB - 24 weeks results: 2.78%
  Atherogenic index Median CFB - 24 weeks results: 0.10 mmol/L
[2]
  Atherogenic index Mean CFB - 24 weeks results: -0.01 mmol/L
  Atherogenic index Mean percentage CFB - 24 weeks results: 0.75%
  Atherogenic index Median CFB - 24 weeks results: 0.00 mmol/L
[3]
  Atherogenic index Mean CFB - 24 weeks results: -0.02 mmol/L
  Atherogenic index Mean percentage CFB - 24 weeks results: 0.43%
  Atherogenic index Median CFB - 24 weeks results: 0.00 mmol/L
[4]
  Atherogenic index Mean CFB - 24 weeks results: -0.05 mmol/L
  Atherogenic index Mean percentage CFB - 24 weeks results: −0.86%
  Atherogenic index Median CFB - 24 weeks results: -0.10 mmol/L
[5]
  Atherogenic index Mean CFB - 24 weeks results: 0.05 mmol/L
  Atherogenic index Mean percentage CFB - 24 weeks results: 2.68%
  Atherogenic index Median CFB - 24 weeks results: 0.00 mmol/L
[6]
  Atherogenic index Mean CFB - 24 weeks results: -0.03 mmol/L
  Atherogenic index Mean percentage CFB - 24 weeks results: 0.32%
  Atherogenic index Median CFB - 24 weeks results: 0.00 mmol/L
[7]
  Atherogenic index Mean CFB - 24 weeks results: 0.09 mmol/L
  Atherogenic index Mean percentage CFB - 24 weeks results: 4.42%
  Atherogenic index Median CFB - 24 weeks results: 0.00 mmol/L
[8]
  Atherogenic index Mean CFB - 24 weeks results: 0.02 mmol/L
  Atherogenic index Mean percentage CFB - 24 weeks results: 2.01%
  Atherogenic index Median CFB - 24 weeks results: 0.00 mmol/L
[9]
  Atherogenic index Mean CFB - 24 weeks results: -0.06 mmol/L
  Atherogenic index Mean percentage CFB - 24 weeks results: −0.30%
  Atherogenic index Median CFB - 24 weeks results: 0.00 mmol/L
[10]
  Atherogenic index Mean CFB - 24 weeks results: -0.21 mmol/L
  Atherogenic index Mean percentage CFB - 24 weeks results: −4.55%
  Atherogenic index Median CFB - 24 weeks results: -0.10 mmol/L
[11]
  Atherogenic index Mean CFB - 24 weeks results: -0.14 mmol/L
  Atherogenic index Mean percentage CFB - 24 weeks results: −2.75%
  Atherogenic index Median CFB - 24 weeks results: -0.10 mmol/L
[12]
  Atherogenic index Mean CFB - 24 weeks results: -0.18 mmol/L
  Atherogenic index Mean percentage CFB - 24 weeks results: −3.44%
  Atherogenic index Median CFB - 24 weeks results: -0.10 mmol/L
[13]
  Atherogenic index Mean CFB - 24 weeks results: -0.07 mmol/L
  Atherogenic index Mean percentage CFB - 24 weeks results: −0.87%
  Atherogenic index Median CFB - 24 weeks results: 0.00 mmol/L
[14]
  Atherogenic index Mean CFB - 24 weeks results: -0.13 mmol/L
  Atherogenic index Mean percentage CFB - 24 weeks results: −2.57%
  Atherogenic index Median CFB - 24 weeks results: -0.10 mmol/L
[15]
  Atherogenic index Mean CFB - 24 weeks results: -0.11 mmol/L
  Atherogenic index Median CFB - 24 weeks results: -0.10 mmol/L
[16]
  Atherogenic index Mean CFB - 24 weeks results: -0.04 mmol/L
  Atherogenic index Mean percentage CFB - 24 weeks results: 0.23%
  Atherogenic index Median CFB - 24 weeks results: 0.00 mmol/L
[17]
  Atherogenic index Mean CFB - 24 weeks results: -0.02 mmol/L
  Atherogenic index Mean percentage CFB - 24 weeks results: −0.40%
  Atherogenic index Median CFB - 24 weeks results: -0.10 mmol/L
[18]
  Atherogenic index Mean CFB - 24 weeks results: -0.15 mmol/L
  Atherogenic index Mean percentage CFB - 24 weeks results: −3.84%
  Atherogenic index Median CFB - 24 weeks results: -0.20 mmol/L
[19]
  Atherogenic index Mean CFB - 24 weeks results: -0.11 mmol/L
  Atherogenic index Mean percentage CFB - 24 weeks results: −2.94%
  Atherogenic index Median CFB - 24 weeks results: -0.10 mmol/L
[20]
  Atherogenic index Mean CFB - 24 weeks results: 0.00 mmol/L
  Atherogenic index Mean percentage CFB - 24 weeks results: 0.36%
  Atherogenic index Median CFB - 24 weeks results: -0.10 mmol/L
[21]
  Atherogenic index Mean CFB - 24 weeks results: 0.01 mmol/L
  Atherogenic index Mean percentage CFB - 24 weeks results: 1.11%
  Atherogenic index Median CFB - 24 weeks results: 0.00 mmol/L
[22]
  Atherogenic index Mean CFB - 24 weeks results: -0.01 mmol/L
  Atherogenic index Mean percentage CFB - 24 weeks results: 0.09%
  Atherogenic index Median CFB - 24 weeks results: 0.00 mmol/L
[23]
  Atherogenic index Mean CFB - 24 weeks results: -0.08 mmol/L
  Atherogenic index Mean percentage CFB - 24 weeks results: −1.32%
  Atherogenic index Median CFB - 24 weeks results: -0.10 mmol/L
[24]
  Atherogenic index Mean CFB - 24 weeks results: -0.12 mmol/L
  Atherogenic index Mean percentage CFB - 24 weeks results: −3.08%
  Atherogenic index Median CFB - 24 weeks results: -0.10 mmol/L
50 mg q.d., week 1
  Atherogenic index Mean CFB: -0.02 mmol/L
  Atherogenic index Mean percentage CFB - 12 weeks results: 0%

From patent publication US10376520B2, “Methods for the treatment of cardiovascular disorders” (Galapagos NV, priority 2015, dated 2019)
